Results taken from patent US20210395694A1, “METHOD FOR PROMOTING PRODUCTION OF EXOSOMES AND/OR EXTRACELLULAR VESICLES” (ExoCoBio Inc., priority 2019, published 2021).

Tests used:
[1] = tested on: Human adipose-derived stem cells; experiment: Nanoparticle tracking analysis (NTA) of exosomes isolated from conditioned medium of stem cells cultured with ascorbic acid; assay type: cell-based
Procedure: Human adipose-derived stem cells were suspended in a-MEM culture medium containing 10% fetal bovine serum (FBS), 100 units/mL penicillin and 100 μg/mL streptomycin, and then seeded into a 6-well plate at a density of 6,000 cells/cm^2 and cultured in an incubator at 37° C. under 5% CO2. For ascorbic acid-treated groups, 24 hours after seeding, ascorbic acid was added to the culture medium at a concentration of 10 μg/mL, 30 μg/mL and 100 μg/mL, respectively. In all of the ascorbic acid-treated groups and the untreated group, when the adipose-derived stem cells reached a confluency of 80% or more, the culture medium was replaced with α-MEM medium containing 100 units/mL penicillin and 100 μg/mL streptomycin (hereinafter referred to as “serum-free medium” or “SFM”), or α-MEM medium containing 2% FBS from which FBS-derived exosomes and extracellular vesicles have been removed, 100 units/mL penicillin and 100 μg/mL streptomycin (hereinafter referred to as “extracellular vesicles-depleted medium” or “EDM”). […] After completion of recovery of the conditioned medium, the cells were counted using a cell counter. […] The particle size and concentration of the isolated exosomes were measured by nanoparticle tracking analysis (NTA) instrument (purchased from Malvern).

[2] = tested on: Human adipose-derived stem cells; experiment: Exosome CD63 content by flow cytometry (PE MFI against a human CD63 standard curve); assay type: cell-based; conditions: CD63 content per mL; compared to the untreated control group; FIG. 3
Procedure: Human adipose-derived stem cells were suspended in a-MEM culture medium containing 10% fetal bovine serum (FBS), 100 units/mL penicillin and 100 μg/mL streptomycin, and then seeded into a 6-well plate at a density of 6,000 cells/cm^2 and cultured in an incubator at 37° C. under 5% CO2. For ascorbic acid-treated groups, 24 hours after seeding, ascorbic acid was added to the culture medium at a concentration of 10 μg/mL, 30 μg/mL and 100 μg/mL, respectively.
In all of the ascorbic acid-treated groups and the untreated group, when the adipose-derived stem cells reached a confluency of 80% or more, the culture medium was replaced with α-MEM medium containing 100 units/mL penicillin and 100 μg/mL streptomycin (hereinafter referred to as “serum-free medium” or “SFM”), or α-MEM medium containing 2% FBS from which FBS-derived exosomes and extracellular vesicles have been removed, 100 units/mL penicillin and 100 μg/mL streptomycin (hereinafter referred to as “extracellular vesicles-depleted medium” or “EDM”). In the ascorbic acid-treated groups, ascorbic acid was added to each of the serum-free medium and the extracellular vesicles-depleted medium at a concentration of 10 μg/mL, 30 μg/mL and 100 μg/mL, respectively. […] After completion of recovery of the conditioned medium, the cells were counted using a cell counter. […]

O=C1O[C@H]([C@@H](O)CO)C(O)=C1O [ascorbic acid]
productivity (i.e., the number of exosome particles per mL) ([1]; compared with the control group not treated with ascorbic acid, FIG. 2): increased by approximately four times or more
particle size distribution of the exosomes ([1]; stem cells pre-treated and cultured in medium containing ascorbic acid vs medium not containing ascorbic acid, FIG. 1 (0, 30, 100 μg/mL)): more uniform particle size distribution
content of the exosomes (i.e., the content of CD63) [2]: remarkably increased
